pIC50: −log10 of the molar value.

For orientation: pIC50 means −log10 of the IC50, conventionally taken in molar units.

The assay deals with T1, Tyrosine-protein phosphatase non-receptor type 1 (Homo sapiens, UniProt P18031).
T1 sequence (P18031 whole entry): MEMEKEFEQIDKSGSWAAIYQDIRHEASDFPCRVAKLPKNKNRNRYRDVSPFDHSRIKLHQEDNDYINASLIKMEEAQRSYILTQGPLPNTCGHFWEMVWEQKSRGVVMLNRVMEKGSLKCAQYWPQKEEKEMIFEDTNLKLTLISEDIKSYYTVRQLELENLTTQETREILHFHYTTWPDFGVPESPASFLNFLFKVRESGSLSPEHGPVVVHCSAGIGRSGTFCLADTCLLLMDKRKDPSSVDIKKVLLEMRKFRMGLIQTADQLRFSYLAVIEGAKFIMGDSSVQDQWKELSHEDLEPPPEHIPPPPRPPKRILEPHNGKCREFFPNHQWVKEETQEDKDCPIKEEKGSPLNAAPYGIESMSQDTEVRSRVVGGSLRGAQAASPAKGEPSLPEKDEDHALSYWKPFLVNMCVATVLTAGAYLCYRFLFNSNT
The assay can be described thus: Inhibition of PTP1B by pNPP hydrolase assay.
As to `O=C(O)c1cc(-c2ccc(/C=C3\NC(=O)N(c4ccccc4)C3=O)o2)ccc1Cl`, the pIC50 is 4.47.

`O=C(O)c1ccc(Nc2cc3ccccc3cc2NS(=O)(=O)c2ccc(F)cc2)cc1`: the pIC50 is 4.39.

Turning to `N#C/C(=C\c1ccc(-c2ccccc2C(=O)O)o1)C(=O)Nc1ccc2ccccc2c1`, the pIC50 was 4.57.

Molecule `O=C(O)c1cccc(-c2ccc(-c3nc4sc5c(c4c(=O)[nH]3)CCCC5)o2)c1` had a pIC50 of 4.60.

`O=C1NC(=O)/C(=C\c2ccc(OCc3ccc(F)cc3)c(Br)c2)S1` showed a pIC50 of 4.96.

Molecule `O=C1ON=C(c2ccccc2)/C1=C\c1ccccc1OCc1ccccc1Cl` gave a pIC50 of 4.66.

`CCOc1ccc(-c2csc(C(C#N)CNc3ccc4oc(=O)ccc4c3)n2)cc1` (centres undefined): the pIC50 was 4.55.

In the case of `O=C1NC(=O)N(c2ccccc2)C(=O)/C1=C\c1cn(Cc2cccc3ccccc23)c2ccccc12`, the pIC50 is 4.92.

`COc1cc(C)ccc1OCCn1cccc1/C=C1\C(=O)NC(=O)N(c2ccc(C)c(Cl)c2)C1=O` had a negative logarithm of the IC50 (pIC50) of 4.46.

The record behind these values is ChEMBL document CHEMBL1152998, “Structure-based virtual screening approach to identify novel classes of PTP1B inhibitors” (Eur J Med Chem, 2009).
